According to patent US20120070377A1, “COMPOUNDS AND BIOLOGICAL MATERIALS AND USES THEREOF” (priority 2009, published 2012):

Columns and labels:
[1] = Biodistribution and blood clearance of 125I-radiolabelled photosensitisers and PICs in SKOV3 tumour mice; type: in vivo, BALB/c nude mice; conditions: mouse, in vivo, iv
Experimental: 0.1 mg of photosensitiser was dissolved in 0.5 ml PBS. Radiolabelled Iodine (Na^125I, ICN chemicals) was added to 0.1 ml of PBS in Iodogen-coated tubes (Pierce chemicals) and allowed to activate. The activated iodine-125 was transferred to the photosensitiser and allowed to react for 5-10 minutes at room temperature. The radiolabelled photosensitiser was separated from free iodine on a mini silica gel column eluting with 100% PBS to remove the iodinating agent followed by a gradual switch from 10% MeOH/PBS to 100% MeOH with the radiolabelled photosenstiser eluting with 10% MeOH/chloroform. The radiolabelled solutions of the photosensitiser was allowed to air-dry and re-suspended in PBS containing 2% DMSO.
(§1) Female BALB/c nude mice (aged 6-8 weeks old) were implanted with 10^7 SKOV3 tumour cells mixed in 0.1 ml of ice-cold matrigel subcutaneously and the tumours were allowed to grow for 3-6 weeks as xenografts. Mice were maintained in IVC cages (individually-vented cages) in a clean room. Samples were injected in a volume of 0.1 ml, intravenously via the lateral tail vein and the mice were maintained in low light with full food and water (irradiated). At various time points (1-24 hr), mice were culled by cardiac puncture under terminal anesthesia and blood and tissues collected. All the tissues were counted for radioactivity by gamma counting and weighed.
The results are shown as a percentage of radioactive material injected per gram of tissue.
The PS (PPa and PPa-PEG) were chemically coupled to C6 scFv, radiolabelled with iodogen as before, but dialysed against 3×5 L of PBS to remove the free iodine and injected into BALB/c nude mice with SKOV3 tumours as above. Tissues were dissected and counted as above.

SKOV3 tumours = experiment: PDT therapy in SKOV3 tumour mice; type: in vivo, BALB/c nude mice
Experimental: as §1
Tumours were set up as described above and injected (iv into the mouse tail vein) with 0.2 ml of free PPa-PEG1 (0.1 mg=33 micromolar concentration) PS on day 1 and day 4. Based on the tumour uptake (see FIG. 10), an HPD laser was used to illuminate the tumours for 20 minutes at 0.5 W after 4 hrs. The mice were anaesthetized beforehand. Laser treatment followed each drug cycle. The tumours were followed for 3 weeks and the % increase in tumour size was plotted (day 0=100%) (see FIG. 12).
Tumours (groups of 6 mice) were set up as described above and injected (iv into the mouse tail vein) with 0.2 ml of C6-PPa-PEG PIC or free PPa-PEG1 PS (1 mg/ml PIC=33 micomolar concentration scFv or 330 micromolar PPa-PEG) on day 1 and day 4. […]

SKOV3 cells = experiment: Confocal fluorescence microscopy, intracellular localisation with organelle co-stains; type: cell-based, human
Experimental: Imaging took place at the FILM Imperial College London on a LEICA SP5 MP inverted confocal microscope, at 37° C. and under a CO2 supplemented atmosphere. The water objective (63×) was used in all the experiments. Images were processed using the Leica software, Image J and Powerpoint.
Note: in any experiment where a photosensitiser is used on cells, the experiment is done under subdued lighting exposing the cells to as little light as possible and incubating wrapped in foil. Following addition of PS to cells, cells were no longer observed on the microscope.
Cells were plated on a Labt-Tek® 8 Chambered #1.0 Borosilicate Coverglass System. With some cell lines, it is often useful to use an attachment factor (200 μl, 30 mins, 37° C.) to coat the wells first.
Photosensitiser solutions in phenol red free DMEM (10% FBS, 1% P/S, 0.5% DMSO) were prepared fresh and pre-warmed to 37° C. for 15 mins. The cells were washed with media (1×200 μl) before adding the solutions (200 μl per chamber). Unless otherwise stated, the cells were grown over 20 hrs in a humidified atmosphere (37° C., 5% CO2). The cells were washed (2×200 μl) with prewarmed phenol red free DMEM
(§2) Lysotracker® Green DND-26 was diluted according to manufacturers indications (1 mM stock) and further diluted to twice the working concentration in DMEM (10% FBS, 1% P/S). For use for single colour staining, this was diluted with DMEM (10% FBS, 1% P/S) to a final concentration of 1 μM. When it was used for two colour staining with photosensitisers, a 2 μM solution was twice diluted in photosensitiser solution to give a 1 μM final concentration.
The cells were incubated for 15 mins at 4° C. and a further 30 mins at 37° C. before replacing with fresh medium and imaging.
as §2, with “MitoTracker®” for “Lysotracker®”, “Green” for “Green DND-26”
The cells were incubated for 15 mins at 4° C. and a further 1 hr at 37° C. before replacing with fresh medium and imaging.
ER-Tracker™ Green (BODIPY® FL glibenclamide) was diluted according to manufacturer's indications (1 mM stock) and further diluted to twice the working concentration in HBSS buffer (+2% HEPES). For use for single colour staining, this was diluted with HBSS (+2% HEPES) to a final concentration of 3 μM. When it was used for two colour staining with photosensitisers, a 6 μM solution was twice diluted in photosensitiser solution to give a 3 μM final concentration.
The cells were incubated for 15 mins at 4° C. and a further 1 hr at 37° C. before replacing with fresh buffer and imaging.
Bodipy® FL C5-ceramide complexed to BSA was diluted according to manufacturer's indications (0.5 mM stock) and further diluted to twice the working concentration in HBSS buffer (+2 HEPES). For use for single colour staining, this was diluted with HBSS (+2% HEPES) to a final concentration of 5 μM. When it was used for two colour staining with photosensitisers, a 10 μM solution was twice diluted in photosensitiser solution to give a 5 μM final concentration. The cells were incubated for 15 mins at 4° C. and a further 30 mins at 37° C. before washing with cold HBSS/HEPES (3×100 μl) and replacing with either HBSS/HEPES or photosensitiser solution and incubating at 37° C. for a further 30 mins before replacing with fresh buffer and imaging.

SMILES: CCC1=C(C)c2cc3[nH]c(c(C)c3CC)c(C#CCCCC(=O)ON3C(=O)CCC3=O)c3nc(c4c5[nH]c(cc1n2)c(C)c5C(=O)C4)[C@@H](CCC(=O)OCc1cc(OCCOCCOCCOC)c(OCCOCCOCCOC)c(OCCOCCOCCOC)c1)[C@@H]3C [compound 11, Meso 5-Ethynylhexanoyl succinimido ester pyropheophorbide a-3,4,5-(triethylene glycolmonomethylether) benzyl ester]
- blood clearance [1]: faster than PPa
- tumour regression compared to untreated (Saline) controls (SKOV3 tumours; C6 PPa-PEG therapy: 0.2 ml iv day 1 and day 4, 1 mg/ml PIC or 0.5 mg/ml free PS, laser 20 minutes 0.5 W after 4 hrs, followed 6 weeks): no significant tumour regression
- tumour regression compared to untreated (Saline) controls (SKOV3 tumours; PPa-PEG only therapy: 0.2 ml iv (0.1 mg) day 1 and day 4, laser 20 minutes 0.5 W after 4 hrs, followed 3 weeks): no significant tumour regression
- golgi localisation (co-localisation with Bodipy ceramide) (SKOV3 cells; FIG. 20): significant yellow staining
- mitochondrial localisation (co-localisation with Mito-tracker) (SKOV3 cells; FIG. 21): significant yellow staining
- lysosomal localisation (co-localisation with Lyso-tracker) (SKOV3 cells; FIG. 22): some yellow staining
- ER localisation (co-localisation with ER-tracker) (SKOV3 cells; FIG. 23): significant yellow staining
